Patent US20070178494A1, “Methods for prediction and prognosis of cancer, and monitoring cancer therapy” (priority 2005, published 2007)

How the values were obtained:
[1] = tested on: VEGF; test: ELISA of plasma VEGF pre- and post-treatment, Phase III TARGETs study; type: in vivo, human; details: patients with advanced renal cell cancer, after 3 weeks of treatment, p=3.2E-5
[2] = tested on: advanced renal cell cancer; test: Progression-free survival by baseline VEGF level, Phase III TARGETs study; type: in vivo, human; details: patients receiving sorafenib
Procedure: All analyses were carried out under IRB-approved protocols.
Measures of patient outcome found useful were time to death (TTD) and progression-free survival (PFS) using a Cox regression analysis. Baseline levels of VEGF were determined and changes in the baseline level were determined at week 18 of treatment. The effects observed were adjusted for age, gender, ECOG status or Motzer score. These adjustments were minimal.

CNC(=O)c1cc(Oc2ccc(NC(=O)Nc3ccc(Cl)c(C(F)(F)F)c3)cc2)ccn1 [sorafenib]
change of VEGF levels from baseline [1]: increased significantly
difference in PFS between patients with high (>250 pg/mL) or low (<250 pg/mL) baseline VEGF levels [2]: no significant difference
